Experimental data taken from patent US10017507B2, “Diaza-benzofluoranthrene compounds” (HARBIN PHARMACEUTICAL GROUP CO., LTD. GENERAL …, priority 2015, dated 2018).
pIC50: −log10 of the molar value.

Biological target: T1, PDE1A (Homo sapiens, UniProt P54750)
T1 construct: purchased SignalChem
Assay: In vitro detection of phosphodiesterase (PDE): PDE1A enzyme activity by fluorescence polarization immunoassay
Format: biochemical
Conditions: human-derived enzyme, cAMP or cGMP substrate; read-out: IC50s for PDE1
Description: Test 1: In Vitro Detection of Phosphodiesterase (PDE)
the enzyme activity of PDE1A was determined by detecting the production of AMP/GMP by fluorescence polarization immunoassay, wherein AlexaFluor 633 labeled AMP/GMP was used to replace AMP/GMP to bind with the antibody.
Reaction buffer: 10 mM Tris-HCl, pH 7.5, 5 mM magnesium chloride, 0.01% Brij 35, 1 mM DTT and 1% DMSO;
Enzyme substrate: […] cAMP or cGMP (Ca^2+-calmodulin acts as a cofactor of PDE1A)
Detection reagent: Transcreener® AMP2/GMP2 antibody; AMP2/GMP2 AlexaFluor 633 tracer.
Experimental Procedure and Method:
1. Human-derived enzyme (commercially available from SignalChem) to be tested and substrate were diluted with freshly prepared reaction buffer;
2. The enzyme solution (with a concentration of 3 pM) was added to the holes of the microplates;
3. A series of solutions of the compounds in 100% DMSO (with the desired concentrations) were added to the holes containing the enzyme solution by Echo550, and then the microplates were incubated for 10 minutes at room temperature;
4. The substrate solution was added to the holes containing the enzyme and compounds to start the reaction;
5. The microplates were incubated for 1 hour under room temperature and vibration;
6. The detection mixture (tracer and antibody in stop buffer) was added to stop the enzyme reaction, and the microplates were incubated for 90 minutes under vibration;
7. The equipment EnVision (PerkinElmer), Cy5 FP Ex FP 620, Em S-pol 688/P-pol 688, FP mirror D658fp/D688 was used to detect the reaction mixture, and Ex/Em 620/688 was used to detect the fluorescence polarization.
In the Excel table, the enzyme activity corresponding to the FP signal was found on the AMP/GMP standard curve by reference to the DMSO negative control, and then was converted to product concentration (nM). GraphPad Prism was used to analyze and calculate the IC50 values.

Row | pIC50 | SMILES
1 | 4.70 to 6.00 | CC[C@@]12C=C(c3cnc(C)c(C)n3)n3c4c(c5ccccc53)CCN(CCC1)[C@H]42 [Example 14, (4^1S,13aS)-12-(5,6-dimethylpyrazin-2-yl)-13a-ethyl-2,3,4^1,5,6,13a-hexahydro-1H-indolo[3,2,1-de]pyrido[3,2,1-ij][1,5]naphthyridine]
2 | 4.00 to 4.70 | CC[C@@]12C=C(c3nc(C)c(C)o3)n3c4c(c5c(S(=O)(=O)NCCCOC)cccc53)CCN(CCC1)[C@H]42 [Example 75, (4^1S,13aS)-12-(4,5-dimethyloxazol-2-yl)-13a-ethyl-N-(3-methoxylpropyl)-2,3,4^1,5,6,13a-hexahydro-1H-indolo[3,2,1-de]pyrido[3,2,1-ij][1,5]naphthyridin-7-sulfonamide]
3 | 4.70 to 6.00 | CC[C@@]12C=C(c3cn4ccccc4n3)n3c4c(c5ccccc53)CCN(CCC1)[C@H]42 [Example 42, (4^1S,13aS)-13a-ethyl-12-(imidazo[1,2-a]pyridin-2-yl)-2,3,4^1,5,6,13a-hexahydro-1H-indolo[3,2,1-de]pyrido[3,2,1-ij][1,5]naphthyridine]
4 | 4.70 to 6.00 | CC[C@@]12C=C(c3nc(C)c(C)o3)n3c4c(c5ccc(S(=O)(=O)N(C)C)cc53)CCN(CCC1)[C@H]42 [Example 69, (4^1S,13aS)-12-(4,5-dimethyloxazol-2-yl)-13a-ethyl-N,N-dimethyl-2,3,4^1,5,6,13a-hexahydro-1H-indolo[3,2,1-de]pyrido[3,2,1-ij][1,5]naphthyridin-9-sulfonamide]
5 | 4.70 to 6.00 | CC[C@@]12C=C(c3nc(C)c(C(C)(C)O)o3)n3c4c(c5ccccc53)CCN(CCC1)[C@H]42 [Example 60, 2-(2-((4^1S,13aS)-13a-ethyl-2,3,4^1,5,6,13a-hexahydro-1H-indolo[3,2,1-de]pyrido[3,2,1-ij][1,5]naphthyridin-12-yl)-4-methyloxazol-5-yl)propan-2-ol]
6 | < 4.00 | CC[C@@]12C=C(c3noc(C4CCN(C(=O)OC(C)(C)C)CC4)n3)n3c4c(c5ccccc53)CCN(CCC1)[C@H]42 [Example 26, Tert-butyl-4-(3-((4^1S,13aS)-13a-ethyl-2,3,4^1,5,6,13a-hexahydro-1H-indolo[3,2,1-de]pyrido[3,2,1-ij][1,5]naphthyridin-12-yl)-1,2,4-oxadiazol-5-yl)piperidine-1-carboxylate]
7 | 4.00 to 4.70 | CC[C@@]12C=C(/C=C/C(N)=O)n3c4c(c5ccccc53)CCN(CCC1)[C@H]42 [Example 7, (E)-3-((4^1S,13aS)-13a-ethyl-2,3,4^1,5,6,13a-hexahydro-1H-indolo[3,2,1-de]pyrido[3,2,1-ij][1,5]naphthyridin-12-yl)acrylamide]
8 | ≥ 6.00 | CC[C@@]12C=C(c3nc(C)c(N4CCOCC4)o3)n3c4c(c5ccccc53)CCN(CCC1)[C@H]42 [Example 67, 4-(2-((4^1S,13aS)-13a-ethyl-2,3,4^1,5,6,13a-hexahydro-1H-indolo[3,2,1-de]pyrido[3,2,1-ij][1,5]naphthyridin-12-yl)-4-methyloxazol-5-yl)morpholine]
9 | 4.70 to 6.00 | CC[C@@]12C=C(c3nc(C)c(C)o3)n3c4c(c5cc(S(=O)(=O)N(C)C)ccc53)CCN(CCC1)[C@H]42 [Example 71, (4^1S,13aS)-12-(4,5-dimethyloxazol-2-yl)-13a-ethyl-N,N-dimethyl-2,3,4^1,5,6,13a-hexahydro-1H-indolo[3,2,1-de]pyrido[3,2,1-ij][1,5]naphthyridin-8-sulfonamide]
10 | 4.70 to 6.00 | CC[C@@]12C=C(c3nc(-c4ccncc4)no3)n3c4c(c5ccccc53)CCN(CCC1)[C@H]42 [Example 31, 5-((4^1S,13aS)-13a-ethyl-2,3,4^1,5,6,13a-hexahydro-1H-indolo[3,2,1-de]pyrido[3,2,1-ij][1,5]naphthyridin-12-yl)-3-(pyridin-4-yl)-1,2,4-oxadiazole]
11 | 4.00 to 4.70 | CC[C@@]12C=C(c3nc(C)no3)n3c4c(c5ccc(S(=O)(=O)N(C)C)cc53)CCN(CCC1)[C@H]42 [Example 77, (4^1S,13aS)-13a-ethyl-N,N-dimethyl-12-(3-methyl-1,2,4-oxadiazol-5-yl)-2,3,4^1,5,6,13a-hexahydro-1H-indolo[3,2,1-de]pyrido[3,2,1-ij][1,5]naphthyridin-9-sulfonamide]
